From article PMC11554305, “Functional identification of soluble uric acid as an endogenous inhibitor of CD38” (eLife, 2024)

Experiments:
[1] = molecular target: T1, recombinant hCD38 (Homo sapiens, UniProt P28907); test: Metabolic assay of NMN (degradation by recombinant hCD38); type: biochemical; conditions: NMN 200 μM, hCD38 20 ng/mL, 6 hr
T1 construct: the commercial recombinant hCD38 without a transmembrane region was partially used in this study; purchased Sino Biological 10818-H08H
T1 sequence (P28907 43-300 limits assumed): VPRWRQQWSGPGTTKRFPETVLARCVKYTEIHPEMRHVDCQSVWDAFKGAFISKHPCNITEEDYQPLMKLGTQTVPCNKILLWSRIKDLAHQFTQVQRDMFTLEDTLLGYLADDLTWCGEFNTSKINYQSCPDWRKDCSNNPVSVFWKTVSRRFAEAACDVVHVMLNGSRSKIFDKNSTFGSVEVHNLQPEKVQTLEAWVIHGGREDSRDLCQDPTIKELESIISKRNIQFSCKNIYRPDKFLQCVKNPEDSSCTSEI
Procedure: To prepare the reaction buffer, sUA was directly dissolved in blank RPMI-1640 medium by addition of NaOH, and the pH was immediately adjusted by HCl. After pH adjustment, the medium containing sUA was filtered by 0.2 μm filter and diluted as indicated. The medium containing 20 ng/mL recombinant hCD38 was then placed in a cell incubator. The reaction was started with the addition of NMN (final concentration was 200 μM). After incubation for 6 hr, 20 μL medium was transferred into 180 μL 5% ice-cold PCA, then vortexed for 30 s and centrifuged at 15,000 rpm, 4°C for 10 min. The supernatant was stored at –80°C until further handling for NMN measurement (see LC-MS/MS analysis).
As mentioned above, samples (cells, tissues, blood, or reaction buffer) were treated with ice-cold PCA, after extraction and centrifugation, the collected supernatant was appropriately diluted in 5% ice-cold PCA when applicable, and then was vortexed for 30 s and centrifuged at 15,000 rpm, 4°C for 5 min. […] All the samples after handling were immediately analyzed in this study without freezing and thawing.
The LC-MS/MS system consisted of a triple quadrupole LCMS-8050 (Shimadzu) and an LC-30A system (Shimadzu). […] NAD^+ and NMN were measured independently in this study, as their peaks were hardly separated within a short time.

[2] = molecular target: T2, CD38 (Mus musculus, UniProt P56528); test: Hydrolase and cyclase activities of human and murine CD38; type: biochemical; conditions: lung tissues from WT mice, OA 0–5 mM
T2 construct: host or cells: recombinant hCD38, cells and mouse tissues
T2 sequence (P56528 1-304): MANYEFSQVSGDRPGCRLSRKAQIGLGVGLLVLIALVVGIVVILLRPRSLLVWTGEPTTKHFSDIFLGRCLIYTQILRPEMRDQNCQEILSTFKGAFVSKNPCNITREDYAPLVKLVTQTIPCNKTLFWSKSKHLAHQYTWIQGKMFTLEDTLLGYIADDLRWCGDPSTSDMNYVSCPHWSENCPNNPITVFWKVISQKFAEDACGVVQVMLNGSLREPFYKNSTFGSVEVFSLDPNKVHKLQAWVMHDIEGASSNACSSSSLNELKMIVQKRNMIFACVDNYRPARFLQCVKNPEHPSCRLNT
Procedure: The hydrolase activity of CD38 was measured according to a previous report ([de Oliveira et al., 2018]) with minor modifications. CD38 hydrolase activity was measured using 50 μM ε-NAD^+ as a substrate in hydrolase reaction buffer (250 mM sucrose, 40 mM Tris-HCl, pH 7.4). Briefly, cells or tissues were directly homogenized in blank reaction buffer on ice, and recombinant hCD38 was diluted in blank reaction buffer for subsequent assays. The tissue homogenates were centrifuged to collect the supernatant for enzyme assays. The loading volume of enzyme was 4–30 μL, the total volume of the reaction system was 3 mL. To detect enzyme inhibition, except when specified, the ligands were directly dissolved in hydrolase reaction buffer before pH adjustment, after which, the pH was immediately adjusted to 7.4. All reaction buffers, with or without ligands, were freshly prepared before each assay. For measurement of hydrolase activity, 3 mL reaction buffer containing enzyme, ε-NAD^+, and ligands at indicated concentrations was maintained at 37°C with constant stirring.
The cyclase activity of CD38 was measured as previously described ([Higashida et al., 1999]; [Jin et al., 2007]). CD38 cyclase activity was measured using 60 μM NGD as a substrate in cyclase reaction buffer (100 mM KCl, 10 μM CaCl2, and 50 mM Tris-HCl, pH 6.6). Tissues were cut into pieces and suspended in the buffer (5 mM MgCl2, 10 mM Tris-HCl, pH 7.3) at 4°C for 30 min. Then, the suspension was homogenized on ice, and the supernatant was collected after centrifugation. To collect the crude membrane fractions, the supernatant was centrifuged at 105,000×g for 30 min. The final pellet was resuspended in 10 mM Tris-HCl solution (pH 6.6) for cyclase assay. Homogenates of THP-1 or A549 cells, and recombinant hCD38 were used directly for cyclase assays. The loading volume of enzyme was 4–20 μL, the total volume of reaction system was 3 mL. To detect enzyme inhibition, except when specified, the ligands were directly dissolved in cyclase reaction buffer before pH adjustment, after which, the pH was immediately adjusted to 6.6. All reaction buffers, with or without ligands, were freshly prepared before each assay. For measurement of cyclase activity, 3 mL reaction buffer containing enzyme, NGD, and ligands at indicated concentrations was maintained at 37°C with constant stirring.
The reaction buffer for hydrolase or cyclase assays was excited at 300 nm, and fluorescence emission was measured every second at 410 nm by Shimazu RF-6000 spectrofluorometer. Hydrolase or cyclase activity was calculated from the linear portion of the time course by fitting a linear function to the data points recorded within 5 min.
Guanosine was dissolved in DMSO and diluted in the reaction buffer for subsequent assays.
For reversibility test, recombinant hCD38 was pre-incubated for 30 min in four conditions: (1) control reaction buffer; (2) in the presence of 100 μM substrate (ε-NAD^+ or NGD); (3) 500 μM sUA; (4) both substrate and sUA. Subsequently, the enzyme was diluted 100-fold in reaction buffer in the presence or absence of 500 μM sUA for activity assays using ε-NAD^+ or NGD. Naïve THP-1 and A549 cells were incubated with RPMI-1640 medium in the presence or absence of 500 μM sUA for 2 hr. The cells were collected and homogenized in the reaction buffer on ice with or without 500 μM sUA, samples were then diluted 100-fold in reaction buffer with or without 500 μM sUA for enzyme assay. Control group was not treated with sUA in all steps; sUA group was treated with sUA in each step; sUA release group was treated with sUA prior to dilution in sUA-free buffer for enzyme assays.

Row | NMN degradation by recombinant hCD38 [1] | IC50 for CD38 (in words) [2] | Structure (SMILES)
1 | directly inhibited NMN degradation | – | O=c1[nH]c(=O)c2[nH]c(=O)[nH]c2[nH]1 [sUA, uric acid]
2 | – | millimolar range | O=C(O)c1nc(=O)[nH]c(=O)[nH]1 [OA, oxonic acid, reference compound]
